Laboratory results: US20200170291A1, “PROCESSES FOR PRODUCING LACTITOL GRANULATES AND GRANULATES PRODUCED THEREBY” (PARTICLE DYNAMICS INTERNATIONAL, LLC, priority 2017, published 2020)
“And” between values parts separate entries of the source, which are not always exact repeats. Identical values can stand only once. Like-named read-outs stand apart in the source and are kept apart here.

Tests used:
Assay type in all cases: physicochemical
[1] = ROTAP sieve particle size distribution (% retained); settings: for Particle Size Distribution (% Retained) 12: 12 mesh screen; for Particle Size Distribution (% Retained) 20: 20 mesh screen; for Particle Size Distribution (% Retained) 40: 40 mesh screen; for Particle Size Distribution (% Retained) 60: 60 mesh screen; for Particle Size Distribution (% Retained) 80: 80 mesh screen; for Particle Size Distribution (% Retained) 100: 100 mesh screen; for Particle Size Distribution (% Retained) 200: 200 mesh screen; for Particle Size Distribution (% Retained) Pan: receiving pan
Method: (§1) All particle size (PS) analyses were conducted using a ROTAP Particle Size Analyzer and a MALVERN MASTERSIZER 2000, except as otherwise indicated. All particle size data were measured in microns and analyzed via the MALVERN MASTERSIZER 2000.
Particle Size: During the granulation process, an approximately 300 g sample is taken from material of the finished product drum starting with the first drum and every sixth drum thereafter, including the last drum (i.e. drum #1, 7, 13, 19 etc.). […] Each fraction was weighed and percent retained was calculated.

[2] = MALVERN MASTERSIZER 2000 particle size (d10, d50, d90); settings: for d50: after U5 COMIL, 0.032″ round hole screen
Method: as §1

Bulk density = assay: Bulk density
Method: (§2) Tapped density of the granulates of the present invention is typically at least about 0.6 g/mL, at least about 0.75 g/mL, at least about 0.80 g/mL, at least about 0.85 g/mL, or at least about 0.90 g/mL. Overall, the tapped density of the granulates of the present invention generally ranges from about 0.6 g/mL to about 1.0 g/mL, from about 0.7 g/mL to about 0.95 g/mL, or from about 0.8 g/mL to about 0.9 g/mL (e.g., about 0.85 g/mL). Bulk and tapped density as reported herein are determined by USP <616>, but it should be understood that other methods known in the art may be also be utilized to determine the tapped densities of compositions of the present invention.
(§3) Tare a 250 mL graduated glass cylinder. Fill with 100 grams of sample. Reweigh to determine weight. Record Initial Volume. The bulk density is the weight in grams divided by the volume (mL). Tap 1000 times by the automated tapping device. Read final volume. The tapped density is the weight in grams divided by the tapped volume (mL).

Tapped density = assay: Tapped density
Method: as §2, §3

[3] = Moisture, loss on drying (LOD), halogen moisture balance; settings: final / as dried material
Text: Unless otherwise indicated, the following equipment was used in Examples 1a and 1b: R&D TURBULIZER High Shear Granulator, Model TCB; Large ACCURATE Powder Feeder; AEROMATIC Fluid Bed Dryer, Model S-2; ADMIX High Shear Mixer; SWECO Vibratory Sieve, 18″; STURTEVANT MICRONIZER Jet Mill, Model 45DM; Halogen Moisture Balance (to determine moisture levels); MALVERN MASTERSIZER 2000 (particle size analyzer); ROTAP particle size analyzer; and a Tapped Density Tester.
A sample of lactitol monohydrate (DANISCO) was evaluated for particle size moisture (loss on drying (LOD)), bulk density, and tapped density. […] A photo micrograph of the material was also generated (FIG. 2).
At approximately 125 g/min, the expected moisture level would be approximately 3.4%. However, at this initial binder flow rate, the granulation exiting the mixer felt too dry and was not as granular as desired. […] The final setting was 37 Hz or approximately 140 g/min. At this binder flow rate the expected granulation moisture level would be approximately 3.8%. No additional adjustments were made to the operating conditions over the remainder of the run. The final wet granulation moisture was approximately 2%. In order to improve the accuracy of the LOD moisture results the moisture balance test conditions were altered.
The expected moisture level at this setting would be approximately 4%. […]

[4] = Moisture content by Karl Fischer (KF)
Method: As noted, lactitol exists in the monohydrate, dihydrate, trihydrate, and hexahydrate forms. Lactitol monohydrate is the preferred form of lactitol for use. Lactitol monohydrate is defined by the EU-NP and USP-NF as having moisture content of between 4.5 wt % and 5.5 wt %. As used herein, the term “moisture content” refers to the total moisture content of a composition, including both free and bound water. Moisture contents reported here are determined by the Karl-Fischer (KF) method, but may also be determined by other suitable methods known in the art.
During the weighing of the ingredients for the binder solution and during the set up for granulation, an approximately 100 g sample representing each raw material is taken and placed into an appropriately labeled container. An approximately 0.3 gram sample is dispersed in methanol and test using a Karl Fischer moisture analyzer with HYDRANAL Composite 5 titrant using a 60 sec extraction time. Percent moisture was reported.
For each Qualification lot, at the beginning and middle of each shift samples were pulled using a sample thief from three locations within the tub after granulation but before drying. These samples were tested for moisture as described above.
Moisture content was also tested using the same procedure after the second drying step.

[5] = HANSON FLODEX powder flowability (viscosity)
Text: Samples were also subjected to flowability testing using a HANSON FLODEX Powder Flowability tester. The basis for the method is the powders ability to fall freely through a hole in a plate. The diameter of the smallest hole through which the powder passes is considered the flowability index. The flowability index (radius of hole size in cm) along with the bulk density of the material tested are then used to determine the viscosity (internal friction coefficient) of the powder. Lower powder viscosity indicates better flowability.
Samples of the finished lactitol granulations produced during execution of the commercial optimization protocol were also evaluated for flow using the HANSON Intrinsic Flowability Test. During the test, the smallest hole (in millimeters) that the product will flow through is determined in the FLODEX apparatus. Using this information and the bulk density of each powder (as determined in a 250 mL graduated cylinder) the coefficient of friction or viscosity (K) was calculated. The viscosity K (in poises) is equal to 490 (½ the acceleration of gravity) times the radius of the hole in centimeters times the bulk density of the sample. The result K is then multiplied by 100 to express the viscosity in centipoises.

With `OC[C@@H](O)[C@@H](O[C@@H]1O[C@H](CO)[C@H](O)[C@H](O)[C@H]1O)[C@H](O)[C@@H](O)CO` [Jet Milled B] the “Particle Size Distribution (% Retained) 12” value [1] was 0.0%, the “Particle Size Distribution (% Retained) 20” value [1] was 0.0% and the “Particle Size Distribution (% Retained) 40” value [1] was 1.9%. The “Particle Size Distribution (% Retained) 60” value [1] was 14.4%, the “Particle Size Distribution (% Retained) 80” value [1] was 17.2% and the “Particle Size Distribution (% Retained) 100” value [1] was 10.7%. For the same molecule, the “Particle Size Distribution (% Retained) 200” value [1] was 36.3%, the “Particle Size Distribution (% Retained) Pan” value [1] was 19.5% and the “PS d10” value [2] was 5.3 μ. For the same molecule, the “PS d50” value [2] was 60.0 μ, the “PS d90” value [2] was 316.2 μ and the “d50 (mean particle size by volume distribution)” value [2] was 60 microns. For the same molecule, the “Bulk Density” value (Bulk density) was 0.670 g/mL and the “Tapped Density” value (Tapped density) was 0.933 g/mL.
With `O.OC[C@@H](O)[C@@H](O[C@@H]1O[C@H](CO)[C@H](O)[C@H](O)[C@H]1O)[C@H](O)[C@@H](O)CO` [Raw Lactitol B] the “Particle Size Distribution (% Retained) 12” value [1] was 0.0%, the “Particle Size Distribution (% Retained) 20” value [1] was 0.3% and the “Particle Size Distribution (% Retained) 40” value [1] was 64.4%. For the same molecule, the “Particle Size Distribution (% Retained) 60” value [1] was 29.9%, the “Particle Size Distribution (% Retained) 80” value [1] was 3.6% and the “Particle Size Distribution (% Retained) 100” value [1] was 0.7%. The “Particle Size Distribution (% Retained) 200” value [1] was 0.8%, the “Particle Size Distribution (% Retained) Pan” value [1] was 0.3% and the “PS d10” value [2] was 94.2 μ. The “PS d50” value [2] was 365.3 μ, the “PS d90” value [2] was 720.3 μ and the “Moisture NMT 3.0%” value [3] was 1.28%. The “Bulk Density” value (Bulk density) was 0.677 g/mL and the “Tapped Density” value (Tapped density) was 0.754 g/mL.
In the case of `OC[C@@H](O)[C@@H](O[C@H]1O[C@H](CO)[C@H](O)[C@H](O)[C@H]1O)[C@H](O)[C@@H](O)CO` [Raw Lactitol, 4-O-α-D-Galactopyranosyl-D-glucitol], the “Particle Size Distribution (% Retained) 12” value [1] is reported as 0.0%, the “Particle Size Distribution (% Retained) 20” value [1] is reported as 10.0% and the “Particle Size Distribution (% Retained) 40” value [1] is reported as 57.0%. For the same molecule, the “Particle Size Distribution (% Retained) 60” value [1] was 26.3%, the “Particle Size Distribution (% Retained) 80” value [1] was 4.0% and the “Particle Size Distribution (% Retained) 100” value [1] was 0.9%. For the same molecule, the “Particle Size Distribution (% Retained) 200” value [1] was 1.3%, the “Particle Size Distribution (% Retained) Pan” value [1] was 0.5% and the “PS d10” value [2] was 112.4 μ. The “PS d50” value [2] was 426.1 μ, the “PS d90” value [2] was 922.8 μ and the “Particle Size Span” value [2] was 1.9. The “d50 (mean particle size by volume distribution)” value [2] was 426 microns, the d50 ([2]; round bar impeller, 1500 rpm) was 235 microns and the d50 ([2]; round bar impeller, 1800 rpm) was 196 microns. For the same molecule, the d50 ([2]; square bar impeller, 4200 rpm) was “approximately 115 microns”, the “Moisture NMT 3.0%” value [3] was 0.61% and the KF moisture [4] was 4.93%. The “Bulk Density” value (Bulk density) was 0.798 g/mL, the “Tapped Density” value (Tapped density) was 0.925 g/mL and the “Tapped Density” value (Tapped density; listed as Raw Lactitol A) was 0.925 g/mL. For the same molecule, the “Tapped Density” value (Tapped density; listed as lactitol monohydrate) was 0.93 g/mL, the “Flow Viscosity” value [5] was ~10 CPS (×1000) and the “viscosity (flowability)” value [5] was “approximately 9,776 cps”.
For `OC[C@@H](O)[C@@H](O[C@@H]1O[C@H](CO)[C@H](O)[C@H](O)[C@H]1O)[C@H](O)[C@@H](O)CO` [milled lactitol], the KF moisture [4] was 5.05% and 4.99%.
